Target: PIK3CD (Human) (UniProt O00329)
Experiment: Assessment of PIK3CD Kinase Activity (Scintillation Proximity Assay)

Chain of PIK3CD (Human) (O00329 whole entry, looked up): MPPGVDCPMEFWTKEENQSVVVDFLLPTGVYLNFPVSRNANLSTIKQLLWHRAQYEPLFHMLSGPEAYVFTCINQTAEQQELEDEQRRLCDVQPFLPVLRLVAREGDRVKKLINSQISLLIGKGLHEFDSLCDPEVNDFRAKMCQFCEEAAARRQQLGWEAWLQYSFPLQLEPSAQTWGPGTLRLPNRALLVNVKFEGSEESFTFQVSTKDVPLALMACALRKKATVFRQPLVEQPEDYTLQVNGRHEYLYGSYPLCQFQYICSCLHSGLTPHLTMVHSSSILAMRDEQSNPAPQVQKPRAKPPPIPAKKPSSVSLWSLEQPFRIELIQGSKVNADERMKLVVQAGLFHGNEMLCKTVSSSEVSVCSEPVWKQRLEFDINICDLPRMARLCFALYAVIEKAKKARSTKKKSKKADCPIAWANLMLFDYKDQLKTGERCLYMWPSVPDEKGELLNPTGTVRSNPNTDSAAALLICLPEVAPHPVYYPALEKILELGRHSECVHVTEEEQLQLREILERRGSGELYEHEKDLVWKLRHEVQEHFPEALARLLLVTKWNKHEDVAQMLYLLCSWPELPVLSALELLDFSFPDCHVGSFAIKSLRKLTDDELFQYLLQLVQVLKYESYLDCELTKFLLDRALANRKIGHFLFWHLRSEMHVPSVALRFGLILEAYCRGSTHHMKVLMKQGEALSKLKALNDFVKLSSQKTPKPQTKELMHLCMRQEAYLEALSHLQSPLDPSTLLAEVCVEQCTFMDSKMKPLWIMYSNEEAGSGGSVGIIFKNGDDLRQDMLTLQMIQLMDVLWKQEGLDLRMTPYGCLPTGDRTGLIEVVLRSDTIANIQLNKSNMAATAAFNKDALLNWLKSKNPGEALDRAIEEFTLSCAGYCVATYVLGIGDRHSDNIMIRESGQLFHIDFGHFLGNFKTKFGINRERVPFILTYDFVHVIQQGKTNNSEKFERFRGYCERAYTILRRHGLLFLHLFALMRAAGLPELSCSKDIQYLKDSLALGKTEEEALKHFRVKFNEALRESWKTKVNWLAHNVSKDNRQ

Row | IC50 [µM] | Compound
1 | ≤ 0.01 | CCOc1c(C(C)n2nc(C)c3c(N)ncnc32)cc(Cl)c(C)c1C#N (stereo not drawn)
2 | ≤ 0.01 | COc1c(C(C)n2ccc(=O)c3c(N)ncnc32)cc(Cl)c(C)c1C1CN(C(C)C)C1 (stereo not drawn)
3 | ≤ 0.01 | COc1c(C(C)n2nc(C(F)F)c3c(N)ncnc32)cc(C#N)c(C)c1C1CN(C(C)C)C1 (stereo not drawn)
4 | 0.01 to 0.05 | CCOc1c(C(C)n2nc(C#N)c3c(N)ncnc32)cc(Cl)c(C)c1-c1ccc(C(=O)N(C)C)nc1 (stereo not drawn)
5 | ≤ 0.01 | CCOc1c(C(C)n2nc(C)c3c(N)ncnc32)cc(Cl)c(C#N)c1C1CN(C2CCC2)C1 (stereo not drawn)
6 | ≤ 0.01 | COc1c(C(C)n2nc(C)c3c(N)ncnc32)cc(Cl)c(C#N)c1C1CN(C)C1 (stereo not drawn)
7 | ≤ 0.01 | COc1c(C(C)n2nc(C)c3c(N)ncnc32)cc(Cl)c(C#N)c1C1CN(CCO)C1 (stereo not drawn)
8 | ≤ 0.01 | CCOc1c(C(C)n2nc(C)c3c(N)ncnc32)cc(Cl)c(C#N)c1C1CN(CCOC)C1 (stereo not drawn)
9 | ≤ 0.01 | CCNC(=O)c1c(C)c(Cl)cc(C(C)n2nc(-c3cc(O)cc(F)c3)c3c(N)ncnc32)c1OCC (stereo not drawn)
10 | ≤ 0.01 | COc1c(C(C)n2nc(C)c3c(N)ncnc32)cc(Cl)c(Cl)c1C1CN(CC(C)(C)O)C1 (stereo not drawn)
11 | ≤ 0.01 | CCN1CC(c2c(C)c(Cl)cc(C(C)n3nc(C)c4c(N)ncnc43)c2OC)C1 (stereo not drawn)
12 | 0.05 to 0.2 | COc1c(C(C)n2ncc3c(N)ncnc32)cc(Cl)c(C)c1-c1ccnc(C(=O)NCCO)c1 (stereo not drawn)
13 | ≤ 0.01 | CCOc1c(C(C)n2nc(C)c3c(N)ncnc32)cc(Cl)c(C#N)c1C1CN(S(C)(=O)=O)C1 (stereo not drawn)
14 | ≤ 0.01 | COc1c(C(C)n2nc(C)c3c(N)ncnc32)cc(Cl)c(C)c1C1CN(CC(C)C)C1 (stereo not drawn)
15 | ≤ 0.01 | COc1c(C(C)n2nc(C)c3c(N)ncnc32)cc(Cl)c(C)c1C1CN(C2COC2)C1 (stereo not drawn)
16 | ≤ 0.01 | CCOc1c(C(C)n2nc(C)c3c(N)ncnc32)cc(Cl)c(C)c1C1CN(C[C@H](C)O)C1 (stereo partly drawn)
17 | ≤ 0.01 | CNC(=O)c1ccc(-c2c(C)c(Cl)cc(C(C)n3ccc(=O)c4c(N)ncnc43)c2OC)cn1 (stereo not drawn)
18 | ≤ 0.01 | COc1c(C(C)n2nc(C)c3c(N)ncnc32)cc(Cl)c(C)c1-c1ccnc(N(C)C)c1 (stereo not drawn)
19 | ≤ 0.01 | COc1c(C(C)n2nc(C)c3c(N)ncnc32)cc(Cl)c(C)c1C1CN(C[C@H](O)C(F)(F)F)C1 (stereo partly drawn)
20 | ≤ 0.01 | CCOc1c(C(C)n2nc(C)c3c(N)ncnc32)cc(Cl)c(C#N)c1C1CN(C(C)(C)C(=O)N(C)C)C1 (stereo not drawn)
21 | ≤ 0.01 | CCOc1c(C(C)n2nc(C)c3c(N)ncnc32)cc(Cl)c(C#N)c1-c1cncc(-c2ncco2)c1 (stereo not drawn)
22 | ≤ 0.01 | CCOc1c(C(C)n2nc(C)c3c(N)ncnc32)cc(Cl)c(C#N)c1C1CN(C(=O)C(C)C)C1 (stereo not drawn)

Row | IC50 [µM] | Compound
23 | ≤ 0.01 | COc1c(C(C)n2nc(C)c3c(N)ncnc32)cc(Cl)c(C)c1C1CN(C(C)CF)C1 (stereo not drawn)
24 | ≤ 0.01 | CCOc1c(C(C)n2nc(C)c3c(N)ncnc32)cc(Cl)c(C#N)c1C1CN(C(=O)C2CC2)C1 (stereo not drawn)
25 | ≤ 0.01 | COc1c(C(C)n2nc(C)c3c(N)ncnc32)cc(Cl)c(C)c1C1CN(C(=O)C(C)(C)O)C1 (stereo not drawn)
26 | ≤ 0.01 | CCOc1c(C(C)n2nc(C)c3c(N)ncnc32)cc(Cl)c(F)c1C1CN(C)C1 (stereo not drawn)
27 | ≤ 0.01 | COc1c(C(C)n2nc(C)c3c(N)ncnc32)cc(Cl)c(C#N)c1C1CN(S(C)(=O)=O)C1 (stereo not drawn)
28 | ≤ 0.01 | CCOc1c(C(C)n2nc(C)c3c(N)ncnc32)cc(Cl)c(C#N)c1C1CN(CC)C1 (stereo not drawn)
29 | ≤ 0.01 | COc1c(C(C)n2nc(C)c3c(N)ncnc32)cc(Cl)c(C)c1C1CN([C@@H](C)CO)C1 (stereo partly drawn)
30 | ≤ 0.01 | COc1c(C(C)n2nc(C)c3c(N)ncnc32)cc(Cl)c(C)c1-c1cncc(S(C)(=O)=O)c1 (stereo not drawn)
31 | ≤ 0.01 | COc1c(C(C)n2nc(C(F)F)c3c(N)ncnc32)cc(Cl)c(C)c1-c1ccc(C(=O)N(C)C)nc1 (stereo not drawn)
32 | ≤ 0.01 | COc1c(C(C)n2nc(C(F)F)c3c(N)ncnc32)cc(C#N)c(C)c1C1CN(CC(C)(C)O)C1 (stereo not drawn)
33 | ≤ 0.01 | CCNC(=O)N1CC(c2c(C#N)c(Cl)cc(C(C)n3nc(C)c4c(N)ncnc43)c2OC)C1 (stereo not drawn)
34 | ≤ 0.01 | COc1c(C(C)n2nc(C(F)F)c3c(N)ncnc32)cc(C#N)c(F)c1C1CN(CCO)C1 (stereo not drawn)
35 | ≤ 0.01 | COc1c(C(C)n2nc(C(F)F)c3c(N)ncnc32)cc(C#N)c(C)c1C1CN(CCO)C1 (stereo not drawn)
36 | ≤ 0.01 | COc1c(C(C)n2nc(C(F)F)c3c(N)ncnc32)cc(Cl)c(F)c1C1CN(CCO)C1 (stereo not drawn)
37 | ≤ 0.01 | CNC(=O)c1ccc(-c2c(C)c(Cl)cc(C(C)n3nc(C)c4c(N)ncnc43)c2OC)cn1 (stereo not drawn)
38 | ≤ 0.01 | CCOc1c(C(C)n2nc(C)c3c(N)ncnc32)cc(C)c(C#N)c1-c1cnn(C)c1 (stereo not drawn)
39 | ≤ 0.01 | COc1c(C(C)n2nc(C)c3c(N)ncnc32)cc(Cl)c(C)c1-c1ccnc(C(=O)NCCO)c1 (stereo not drawn)
40 | ≤ 0.01 | CCS(=O)(=O)N1CC(c2c(C#N)c(Cl)cc(C(C)n3nc(C)c4c(N)ncnc43)c2OC)C1 (stereo not drawn)
41 | ≤ 0.01 | CCOc1c(C(C)n2nc(C)c3c(N)ncnc32)cc(Cl)c(C)c1-c1cnn(CC(N)=O)c1 (stereo not drawn)
42 | ≤ 0.01 | CCOc1c(C(C)n2nc(C)c3c(N)ncnc32)cc(Cl)c(C#N)c1C1CN(S(=O)(=O)C(C)C)C1 (stereo not drawn)
43 | ≤ 0.01 | CCOc1c(C(C)n2nc(C(F)F)c3c(N)ncnc32)cc(Cl)c(F)c1C1CN(C[C@H](C)O)C1 (stereo partly drawn)
44 | ≤ 0.01 | CCNC(=O)c1c(C)c(Cl)cc(C(C)n2nc(C)c3c(N)ncnc32)c1-c1cc(F)cc(F)c1 (stereo not drawn)

Row | IC50 [µM] | Compound
45 | ≤ 0.01 | COc1c(C(C)n2nc(C)c3c(N)ncnc32)cc(Cl)c(C#N)c1C1CN(C(N)=O)C1 (stereo not drawn)
46 | ≤ 0.01 | COc1c(C(C)n2nc(C)c3c(N)ncnc32)cc(Cl)c(C#N)c1C1CN(S(=O)(=O)C(C)C)C1 (stereo not drawn)
47 | ≤ 0.01 | COc1c(C(C)n2cc(C)c3c(N)ncnc32)cc(Cl)c(C)c1-c1ccc(C(=O)N(C)C)nc1 (stereo not drawn)
48 | ≤ 0.01 | COc1c(C(C)n2nc(C)c3c(N)ncnc32)cc(Cl)c(C)c1C1CN(C2(CC#N)CCC2)C1 (stereo not drawn)
49 | ≤ 0.01 | CCOc1c(C(C)n2nc(C)c3c(N)ncnc32)cc(Cl)c(F)c1C1CN(C[C@H](C)O)C1 (stereo partly drawn)
50 | ≤ 0.01 | CCOc1c(C(C)n2nc(C)c3c(N)ncnc32)cc(Cl)c(F)c1C1CN(CC)C1 (stereo not drawn)
51 | ≤ 0.01 | CCOc1c(C(C)n2nc(C)c3c(N)ncnc32)cc(Cl)c(C)c1-c1ccnc(C(=O)N(C)C)c1 (stereo not drawn)
52 | ≤ 0.01 | COc1c(C(C)n2ccc(=O)c3c(N)ncnc32)cc(Cl)c(C)c1-c1cncc(S(C)(=O)=O)c1 (stereo not drawn)
53 | ≤ 0.01 | COc1c(C(C)n2nc(C)c3c(N)ncnc32)cc(Cl)c(C)c1-c1ccc(N(C)C)nc1 (stereo not drawn)
54 | ≤ 0.01 | CCOc1c(C(C)n2nc(-c3cncc(C#N)c3)c3c(N)ncnc32)cc(Cl)c(C)c1-c1ccc(C(=O)N(C)C)nc1 (stereo not drawn)
55 | ≤ 0.01 | COc1c(C(C)n2nc(C)c3c(N)ncnc32)cc(Cl)c(C#N)c1C1CN(C2COC2)C1 (stereo not drawn)
56 | ≤ 0.01 | COc1c(C(C)n2nc(C(F)F)c3c(N)ncnc32)cc(C#N)c(F)c1C1CN(C[C@H](C)O)C1 (stereo partly drawn)
57 | ≤ 0.01 | COc1c(C(C)n2nc(C(F)F)c3c(N)ncnc32)cc(C#N)c(C)c1C1CN(C(C)=O)C1 (stereo not drawn)
58 | ≤ 0.01 | COc1c(C(C)n2cc(-c3cn[nH]c3)c(=O)c3c(N)ncnc32)cc(Cl)c(C)c1-c1ccc(C(=O)N(C)C)nc1 (stereo not drawn)
59 | ≤ 0.01 | CCOc1c(C(C)n2nc(C)c3c(N)ncnc32)cc(Cl)c(C#N)c1C1CN(S(=O)(=O)CC)C1 (stereo not drawn)
60 | ≤ 0.01 | CNC(=O)N1CC(c2c(C)c(Cl)cc(C(C)n3nc(C)c4c(N)ncnc43)c2OC)C1 (stereo not drawn)
61 | ≤ 0.01 | COc1c(C(C)n2nc(C)c3c(N)ncnc32)cc(Cl)c(Cl)c1C1CN(C(C)=O)C1 (stereo not drawn)
62 | ≤ 0.01 | COc1c(C(C)n2nc(C)c3c(N)ncnc32)cc(Cl)c(C)c1-c1cnn(CCO)c1 (stereo not drawn)
63 | ≤ 0.01 | CCOc1c(C(C)n2nc(C)c3c(N)ncnc32)cc(Cl)c(C#N)c1C1CNC(=O)C1 (stereo not drawn)
64 | ≤ 0.01 | CCOc1c(C(C)n2nc(C(F)F)c3c(N)ncnc32)cc(Cl)c(C)c1-c1ccc(C(=O)N(C)C)nc1 (stereo not drawn)
65 | ≤ 0.01 | Cc1c(Cl)cc(C(C)n2nc(C)c3c(N)ncnc32)c(OCC2CC2)c1-c1ccc(C(=O)N(C)C)nc1 (stereo not drawn)
66 | ≤ 0.01 | COc1c(C(C)n2nc(C)c3c(N)ncnc32)cc(Cl)c(C)c1-c1cnn(CC(=O)N(C)C)c1 (stereo not drawn)

Row | IC50 [µM] | Compound
67 | ≤ 0.01 | CCNC(=O)c1c(C)c(Cl)cc(C(C)n2nc(-c3ccc4[nH]ccc4c3)c3c(N)ncnc32)c1OCC (stereo not drawn)
68 | 0.01 to 0.05 | COc1c(C(C)n2nc(C)c3c(N)ncnc32)cc(C#N)c(C)c1-c1ccnc(C(=O)N(C)CCO)c1 (stereo not drawn)
69 | ≤ 0.01 | CCOc1c(C(C)n2nc(I)c3c(N)ncnc32)cc(Cl)c(C)c1-c1ccc(C(=O)N(C)C)nc1 (stereo not drawn)
70 | ≤ 0.01 | CCOc1c(C(C)n2nc(C)c3c(N)ncnc32)cc(Cl)c(C)c1C1CN(C(C)C)C1 (stereo not drawn)
71 | ≤ 0.01 | CCOc1c(C(C)n2nc(C)c3c(N)ncnc32)cc(Cl)c(C#N)c1C1CN(CC(F)(F)F)C1 (stereo not drawn)
72 | ≤ 0.01 | CNC(=O)c1cc(-c2c(C)c(Cl)cc(C(C)n3nc(C)c4c(N)ncnc43)c2OC)ccn1 (stereo not drawn)
73 | ≤ 0.01 | COc1c(C(C)n2nc(C)c3c(N)ncnc32)cc(Cl)c(C)c1-c1cnn(CCN(C)C)c1 (stereo not drawn)
74 | ≤ 0.01 | COc1c(C(C)n2nc(C)c3c(N)ncnc32)cc(Cl)c(Cl)c1C1CN(C[C@H](C)O)C1 (stereo partly drawn)
75 | ≤ 0.01 | CCOC(=O)N1CC(c2c(C#N)c(Cl)cc(C(C)n3nc(C)c4c(N)ncnc43)c2OC)C1 (stereo not drawn)
76 | ≤ 0.01 | COc1c(C(C)n2nc(C)c3c(N)ncnc32)cc(Cl)c(F)c1C1CN(C[C@H](C)O)C1 (stereo partly drawn)
77 | ≤ 0.01 | COc1c(C(C)n2nc(C)c3c(N)ncnc32)cc(Cl)c(C)c1C1CN(C[C@@H](O)C(F)(F)F)C1 (stereo partly drawn)
78 | ≤ 0.01 | COc1c(C(C)n2nc(C)c3c(N)ncnc32)cc(Cl)c(C)c1C1CN(CC(F)F)C1 (stereo not drawn)
79 | ≤ 0.01 | COc1c(C(C)n2nc(C)c3c(N)ncnc32)cc(Cl)c(C)c1C1CN([C@H](C)C(=O)N(C)C)C1 (stereo partly drawn)
80 | ≤ 0.01 | COc1c(C(C)n2nc(C)c3c(N)ncnc32)cc(Cl)c(C)c1-c1cncc(C(=O)N2CCC(O)CC2)c1 (stereo not drawn)
81 | ≤ 0.01 | COc1c(C(C)n2nc(C)c3c(N)ncnc32)cc(Cl)c(C)c1C1CN(C2CCOC2)C1 (stereo not drawn)
82 | ≤ 0.01 | CCOc1c(C(C)n2nc(C)c3c(N)ncnc32)cc(Cl)c(F)c1C1CN(CC(C)(C)O)C1 (stereo not drawn)
83 | ≤ 0.01 | CCOc1c(C(C)n2nc(C(F)F)c3c(N)ncnc32)cc(Cl)c(F)c1C1CN(C(C)C)C1 (stereo not drawn)
84 | ≤ 0.01 | CCOc1c(C(C)n2nc(C)c3c(N)ncnc32)cc(Cl)c(C#N)c1-c1cncc(C#N)c1 (stereo not drawn)
85 | ≤ 0.01 | COc1c(C(C)n2nc(C)c3c(N)ncnc32)cc(Cl)c(C)c1C1CN(C(=O)C2CC2)C1 (stereo not drawn)
86 | ≤ 0.01 | CCOc1c(C(C)n2nc(C)c3c(N)ncnc32)cc(Cl)c(C#N)c1C1CN(CC2CCOC2)C1 (stereo not drawn)
87 | ≤ 0.01 | COc1c(C(C)n2nc(C)c3c(N)ncnc32)cc(Cl)c(C)c1C1CN(CC(O)C(F)(F)F)C1 (stereo not drawn)

Row | Compound | IC50 [µM]
88 | COc1c(C(C)n2nc(C(F)F)c3c(N)ncnc32)cc(C#N)c(C)c1C1CN(CC(F)F)C1 (stereo not drawn) | ≤ 0.01
